In publication PMC5141248 (Biochemistry, 2016):

Target: human CP4H1 (Homo sapiens, UniProt P13674)
Experiment: UPLC peptide hydroxylation assay
Format: biochemical
Settings: turnover; cosubstrate 0.1-10 mM, dansylGlyProProGlyOEt 500 μM, Fe(II) 50 μM, ascorbate 2 mM, pH 7.8, 30 °C

Sequence of human CP4H1 (P13674 18-534): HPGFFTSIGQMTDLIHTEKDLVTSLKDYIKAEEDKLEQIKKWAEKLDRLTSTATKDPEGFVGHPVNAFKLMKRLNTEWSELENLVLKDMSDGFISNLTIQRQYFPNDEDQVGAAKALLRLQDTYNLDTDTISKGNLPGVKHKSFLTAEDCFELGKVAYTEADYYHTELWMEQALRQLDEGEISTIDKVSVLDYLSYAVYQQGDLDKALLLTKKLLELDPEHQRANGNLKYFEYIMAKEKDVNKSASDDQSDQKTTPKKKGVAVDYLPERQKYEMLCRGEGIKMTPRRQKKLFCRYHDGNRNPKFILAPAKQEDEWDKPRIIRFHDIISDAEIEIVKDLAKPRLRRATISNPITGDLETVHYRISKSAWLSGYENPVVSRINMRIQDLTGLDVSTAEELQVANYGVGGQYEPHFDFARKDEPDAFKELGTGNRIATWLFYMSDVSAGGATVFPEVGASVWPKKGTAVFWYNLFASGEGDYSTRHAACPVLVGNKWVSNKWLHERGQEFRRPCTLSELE
Sequence of human CP4H1 (P07237 18-508 partner): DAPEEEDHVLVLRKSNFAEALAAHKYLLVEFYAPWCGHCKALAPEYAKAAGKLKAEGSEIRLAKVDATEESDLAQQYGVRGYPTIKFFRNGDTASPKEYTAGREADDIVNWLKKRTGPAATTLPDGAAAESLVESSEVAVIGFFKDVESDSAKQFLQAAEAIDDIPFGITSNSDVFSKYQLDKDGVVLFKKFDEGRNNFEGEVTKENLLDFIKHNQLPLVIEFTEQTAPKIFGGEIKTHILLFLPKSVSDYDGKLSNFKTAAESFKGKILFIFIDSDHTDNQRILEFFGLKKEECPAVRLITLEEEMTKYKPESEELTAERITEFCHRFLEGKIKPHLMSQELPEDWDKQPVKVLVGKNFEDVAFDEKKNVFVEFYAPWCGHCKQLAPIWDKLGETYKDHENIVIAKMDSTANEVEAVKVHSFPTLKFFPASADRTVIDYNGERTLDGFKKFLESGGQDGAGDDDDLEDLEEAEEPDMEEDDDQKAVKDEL

SMILES: O=C(O)CCC(=O)C(=O)O [α-ketoglutarate]
- UPLC peptide hydroxylation assay: the reaction was initiated by the addition of α-ketoglutarate
